Assay results from patent publication US12286401B2, “Small molecules that sensitize HIV-1 infected cells to antibody dependent cellular cytotoxicity” (THE TRUSTEES OF THE UNIVERSITY OF PENNSYLVANIA, priority 2018, dated 2025).

Key:
[1] = system: CH58TF infected primary CD4+ T-cells; test: HIV+ patient sera/plasma recognition of CH58TF infected primary CD4+ T-cells (flow cytometry cell-surface staining); format: cell-based, HIV-1; settings: Human immunodeficiency virus 1, T-cell, read-out: Fold Over DMSO (patient sera, n = 3)
Summary of the method: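 Primary CD4+ T cells from PBMC infected with HIV-1 CH58TF for 48 h, then surface-stained with 1:1000 HIV+ plasma or 5 μg/ml 17b plus 50 μM MCG analogs or DMSO; Alexa Fluor 647 anti-human IgG detection by flow cytometry, infected cells gated p24+. Values are fold change over DMSO.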

[2] = system: CH58TF infected primary CD4+ T-cells; test: Recognition of HIV-1 infected cells by 17b (flow cytometry cell-surface staining); format: cell-based; settings: Human immunodeficiency virus 1, T-cell, read-out: Fold Over DMSO (17b, n = 1)
Description: Cell-surface staining of primary CD4+ T cells from healthy HIV uninfected individuals or CEM-NKr cells is performed, as described in Prevost, “Influence of the Envelope gp120 Phe 43 Cavity on HIV-1 Sensitivity to Antibody-Dependent Cell-Mediated Cytotoxicity Responses,” 2017, J. Virol 91; Richard, “CD4 mimetics sensitize HIV-1-infected cells to ADCC,” 2015, Proc. Natl. Acad. Sci. USA, 112:E2687-2694; Richard, “Small CD4 Mimetics Prevent HIV-1 Uninfected Bystander CD4+ T Cell Killing Mediated by Antibody-dependent Cell-mediated Cytotoxicity,” 2016, EBioMedicine 3:122-134; Veillette, “The HIV-1 gp120 CD4-Bound Conformation Is Preferentially Targeted by Antibody-Dependent Cellular Cytotoxicity-Mediating Antibodies in Sera from HIV-1-Infected Individuals,” 2015, J. Virol., 89:545-551; Veillette, “Interaction with cellular CD4 exposes HIV-1 envelope epitopes targeted by antibody-dependent cell-mediated cytotoxicity,” 2014, J. Virol., 88:2633-2644; Richard, “Uninfected Bystander Cells Impact the Measurement of HIV-Specific Antibody-Dependent Cellular Cytotoxicity Responses,” 2018, MBio. 9(2): e00358-18; Richard, “BST-2 Expression Modulates Small CD4-Mimetic Sensitization of HIV-1-Infected Cells to Antibody-Dependent Cellular Cytotoxicity,” 2017, J. Virol. 91(11):e00219-17. Binding of HIV-1 infected cells by HIV+ sera (1:1000 dilution) or anti-Env Abs (such as 17b) is performed […] in vitro infection at 37° C. in presence of different concentrations of the MCG analogs or with equivalent volume of vehicle (DMSO). Cells infected with HIV-1 primary isolates are stained intracellularly for HIV-1 p24 using the Cytofix/Cytoperm Fixation/Permeabilization Kit (BD Biosciences, Mississauga, ON, Canada) and then fluorescent anti-p24 mAb (PE-anti-p24, clone KC57; Beckman Coulter/Immunotech, Hialeah, FL) (1:100 final concentration). The percentage of infected cells (p24^+ or GFP+ cells) is determined by gating the living cell population based on the viability dye staining. Samples are analyzed on an LSRII cytometer (BD Biosciences, Mississauga, ON, Canada) and data analysis is performed using FlowJo vX0.7 (Tree Star, Ashland, OR, USA).
(§1) Briefly, Primary CD4 T cells isolated from PBMC were infected with HIV-1CH58TF for 48 hours. For cell surface staining, 5 μg/ml 17b (FIG. 15A) or 1:1000 diluted HIV+ plasma (n=15) (FIG. 15B) were used in the presence of the different MCG analogs (50 μM), (+)-BNM-III-170 or with an equivalent volume of vehicle (DMSO). An Alexa Fluor 647-conjugated anti-human IgG secondary Ab was then used for fluorescent labeling. For ADCC (FIG. 15C), infected cells were used as target cells in a FACS-based ADCC assay that measures the killing of infected (p24+ cells). See, Madani, 2016, J. Virol., 90:5031-5046. The assay determines susceptibility to ADCC mediated by a 1/1,000 dilution of plasma from 15 HIV-1-infected individuals in the presence of the different MCG analogs (50 μM), (+)-BNM-III-170 (50 μM) or with an equivalent volume of vehicle (DMSO). Correlation between cell-surface staining with HIV+ plasma and ADCC was calculated using the Spearman rank correlation (FIG. 15D).

[3] = system: primary CD4+ T cells infected with CH58 TF; test: FACS-based ADCC assay with patient sera/plasma; format: cell-based, HIV-1; settings: Human immunodeficiency virus 1, CD4+ T, read-out: Fold over DMSO (% ADCC with ps, n = 3)
Description: Measurement of antibody or serum-mediated ADCC is performed with a FACS-based assay as described in Prevost, “Influence of the Envelope gp120 Phe 43 Cavity on HIV-1 Sensitivity to Antibody-Dependent Cell-Mediated Cytotoxicity Responses,” 2017, J. Virol 91; Richard, “CD4 mimetics sensitize HIV-1-infected cells to ADCC,” 2015, Proc. Natl. Acad. Sci. USA, 112:E2687-2694; Richard, “Small CD4 Mimetics Prevent HIV-1 Uninfected Bystander CD4+ T Cell Killing Mediated by Antibody-dependent Cell-mediated Cytotoxicity,” 2016, EBioMedicine 3:122-134; Veillette, “The HIV-1 gp120 CD4-Bound Conformation Is Preferentially Targeted by Antibody-Dependent Cellular Cytotoxicity-Mediating Antibodies in Sera from HIV-1-Infected Individuals,” 2015, J. Virol., 89:545-551; Veillette, “Interaction with cellular CD4 exposes HIV-1 envelope epitopes targeted by antibody-dependent cell-mediated cytotoxicity,” 2014, J. Virol., 88:2633-2644; Richard, “Uninfected Bystander Cells Impact the Measurement of HIV-Specific Antibody-Dependent Cellular Cytotoxicity Responses,” 2018, MBio. 9(2): e00358-18; Richard, “BST-2 Expression Modulates Small CD4-Mimetic Sensitization of HIV-1-Infected Cells to Antibody-Dependent Cellular Cytotoxicity,” 2017, J. Virol. 91(11):e00219-17. This assay specifically measures ADCC activity against productively infected cells and is not affected by the confounding effect of uninfected bystander cells. See, Richard, “Uninfected Bystander Cells Impact the Measurement of HIV-Specific Antibody-Dependent Cellular Cytotoxicity Responses,” 2018, MBio., 9(2): e00358-18.
Briefly, primary CD4+ T cells isolated from healthy HIV-1-negative individuals or CEM-NKr cells are infected with HIV viruses. Forty-eight hours post-infection, cells are incubated with autologous PBMC (effector:target cell ratio of 10:1) in the presence of 1:1000 HIV+ sera dilution or anti-Env Abs (5 μg/mL) alone or in combination with increasing concentration of MCG analogs. Infected cells are identified by intracellular staining for HIV-1 p24 or GFP expression (for GFP expressing infectious molecular clones) and the percentage of cytotoxicity is calculated the following formula as described.
For cells infected with HIV-1 primary isolates, infected cells are identified by intracellular staining for HIV-1 p24. In that context, the percentage of cytotoxicity is calculated with the following formula by gating infected lived target cells: […]
The ADCC susceptibility of primary CD4+ T cells infected with CH58 TF mediated by HIV+ plasma+/−MCG analogs also was evaluated using a FACS-based assay as previously reported. See, Ding, 2016, J Virol., 90:2127-2134; and Richard, 2018, MBio 9.
as §1

Solubility in PBS = format: physicochemical; settings: Yes/NO
[4] = system: HIV-1JR-FL EnvΔCT expressed at the surface of HOS cells; test: Cell-based ELISA (CBE), 17b readout; settings: MCG analogs 50 μM; BNM-III-170 5 μM; 2G12 and DMSO normalized
Summary of the method: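 HOS cells transiently expressing cytoplasmic-tail-truncated HIV-1JR-FL Env were treated 30 min at room temperature with compounds (50 μM), sCD4 ([…]) or DMSO, then 1 h with 17b antibody. Bound 17b was detected by HRP-conjugated anti-Fc chemiluminescence; values are fold over BNM-III-170 (5 μM), normalized to 2G12 and DMSO.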

| Compound | fold induction at 50 µM [1] | fold induction at 50 µM [2] | fold induction at 50 µM [3] | Solubility (in PBS) (Solubility in PBS) | Fold over BNM-III-170 - 17b binding (±0.05) [4] [fold] |
| --- | --- | --- | --- | --- | --- |
| COc1ccccc1NC(=O)[C@H]1CCCN(S(C)(=O)=O)C1 [(S)-MCG-III-027-C05] | 1.76 | 1.5 | 0.46 | Yes | – |
| CCS(=O)(=O)N1CCC[C@H](C(=O)Nc2ccc(F)c(F)c2)C1 [(S)-MCG-III-085-C04] | 1.68 | 3.95 | – | Yes | 0.26 |
| CCS(=O)(=O)N1CCC[C@H](C(=O)Nc2ccc(Cl)c(Br)c2)C1 [(S)-MCG-III-085-C05] | 1.04 | 1.77 | – | Yes | 0.26 |
| CS(=O)(=O)N1CCC[C@H](C(=O)Oc2ccc(Cl)c(F)c2)C1 [(S)-MCG-III-213-A01] | 1.08 | 1.08 | – | Yes | 0.07 |
| CCS(=O)(=O)N1CCC[C@H](C(=O)Oc2ccc(Cl)c(F)c2)C1 [(S)-MCG-III-213-A02] | 1.03 | 1.07 | – | Yes | 0.07 |
| Cn1cnc(S(=O)(=O)N2CCC[C@H](C(=O)Oc3ccc(Cl)c(F)c3)C2)c1 [(S)-MCG-III-213-A04] | 1.07 | 1.06 | – | Yes | 0.10 |
| CS(=O)(=O)N1CCOC(C(=O)Nc2ccc(Cl)c(F)c2)C1 (centres unmarked) [MCG-III-211-A01] | 1.47 | 2.63 | – | Yes | 0.28 |
| CCS(=O)(=O)N1CCOC(C(=O)Nc2ccc(Cl)c(F)c2)C1 (centres unmarked) [MCG-III-211-A02] | 1.81 | 3.64 | – | Yes | 0.33 |
| Cn1cnc(S(=O)(=O)N2CCOC(C(=O)Nc3ccc(Cl)c(F)c3)C2)c1 (centres unmarked) [MCG-III-211-A04] | 1.63 | 3.61 | – | Yes | 0.35 |
| CC(C)(C)OC(=O)N1CCN(S(C)(=O)=O)CC1C(=O)Nc1ccc(Cl)c(F)c1 (centres unmarked) [MCG-III-212-A01] | 0.982 | 0.968 | – | Yes | 0.06 |
| CCS(=O)(=O)N1CCNC(C(=O)Nc2ccc(Cl)c(F)c2)C1 (centres unmarked) [MCG-III-212-A02] | 1.85 | 3.95 | – | Yes | 0.36 |
| Cn1cnc(S(=O)(=O)N2CCN(C(=O)OC(C)(C)C)C(C(=O)Nc3ccc(Cl)c(F)c3)C2)c1 (centres unmarked) [MCG-III-212-A04] | 0.924 | 1.04 | – | Yes | 0.06 |
| CS(=O)(=O)N1CC(C(=O)Nc2ccc(Cl)c(F)c2)Cc2ccccc21 (centres unmarked) [MCG-III-214-A01] | 1.29 | 1.39 | – | Yes | 0.24 |
| O=C(Nc1ccc(Cl)c(F)c1)C1CNCCN1 (centres unmarked) [MCG-III-216-A01] | 0.999 | 1.73 | – | Yes | 0.21 |
| CS(=O)(=O)N1CCNC(C(=O)Nc2ccc(Cl)c(F)c2)C1 (centres unmarked) [MCG-III-216-A02] | 1.03 | 1.3 | – | Yes | 0.10 |
| O=C(Nc1ccc(Cl)c(F)c1)C1CN(S(=O)(=O)c2ccccc2)CCN1 (centres unmarked) [MCG-III-216-A03] | 1.05 | 1.47 | – | Yes | 0.11 |
| Cn1cnc(S(=O)(=O)N2CCNC(C(=O)Nc3ccc(Cl)c(F)c3)C2)c1 (centres unmarked) [MCG-III-216-A04] | 0.845 | 1.24 | – | Yes | 0.10 |
